The source of these data is ChEMBL document CHEMBL4483862, “Open-source discovery of chemical leads for next-generation chemoprotective antimalarials” (2018).

For the assay, the system named is Plasmodium berghei. The assay can be described thus: Luciferase/luciferin-expressing antifolate-resistant parasites were used to infect a culture of HepG2 cells that were pre-incubated with compounds. Infected hepatocytes emit light due to the luciferase reaction. Assay results are presented as the percent inhibition of light emission compared to control. […]. The note with it: sporozoite; for IC90: read-out: LUCIFERASE INFECTION ASSAY - IC90. Type of assay: functional.

The structures appear in SMILES notation. Some results are limits rather than exact numbers.

The term IC50 denotes the concentration that inhibits the measured activity by half. Broadly, the IC90 is the point of the concentration-response curve where the effect stands at 90%. Consider `Fc1ccc(N2CCN(c3nc(CN4CCOCC4)nc4scc(-c5ccccc5)c34)CC2)cc1`, for which the IC90 was above 10 µM. Besides, the IC50 (HEPG2TOX_HILL_SLOPE 0.184, HEPG2TOX_R_SQUARED 0.0625, read-out: LUCIFERASE INFECTION ASSAY - IC50) was above 10 µM.

On to `CCOc1ccc(Nc2nc3cc(S(=O)(=O)N(CC)CC)ccc3o2)cc1`, for which the IC90 was above 10 µM. Moreover, where the note is “HEPG2TOX_HILL_SLOPE 0.167, HEPG2TOX_R_SQUARED 0.162, read-out: LUCIFERASE INFECTION ASSAY - IC50”, the IC50 was above 10 µM.

`CC(C)(C)c1ccc(CC(=O)N2CCC2(C)C(=O)Nc2cnc3ccccc3c2)cc1` (stereo not given): the IC90 was 3.72 µM. In addition, the IC50 (HEPG2TOX_HILL_SLOPE 0.158, HEPG2TOX_R_SQUARED 0.645, PBLUC_HILL_SLOPE 10.5, PBLUC_R_SQUARED 0.686, read-out: LUCIFERASE INFECTION ASSAY - IC50) worked out at 3.02 µM.

With `CC1(C(=O)Nc2cnc3ccccc3c2)CCN1Cc1ccccc1Cl` (stereo not given), the IC90 was above 9.02 µM. The IC50 (HEPG2TOX_HILL_SLOPE 0.189, HEPG2TOX_R_SQUARED 0.318, read-out: LUCIFERASE INFECTION ASSAY - IC50) was above 9.02 µM.

Consider `CC(=O)c1cccc(-c2cnc3cnc(-c4cccs4)cn23)c1`, for which the IC90 worked out at 8.52 µM. Further, where the note is “HEPG2TOX_HILL_SLOPE 0.197, HEPG2TOX_R_SQUARED 0.442, PBLUC_HILL_SLOPE 3.75, PBLUC_R_SQUARED 0.777, read-out: LUCIFERASE INFECTION ASSAY - IC50”, the IC50 turned out to be 4.74 µM.

On to `COc1cc(NC(=O)COC(=O)c2ccccc2Nc2ccc(SC(F)F)cc2)c(C)cc1[N+](=O)[O-]`, for which the IC90 was above 10 µM. The IC50 (HEPG2TOX_HILL_SLOPE 0.171, HEPG2TOX_R_SQUARED 0.654, read-out: LUCIFERASE INFECTION ASSAY - IC50) was above 10 µM.

For `CCOC(=O)c1c(S(=O)(=O)Nc2ccc([N+](=O)[O-])cc2)c(-c2ccccc2)n(-c2ccccc2)c1C`, the IC90 was above 6.53 µM. For the same compound, where the note is “HEPG2TOX_HILL_SLOPE 0.2, HEPG2TOX_R_SQUARED 0.0818, PBLUC_HILL_SLOPE 2.97, PBLUC_R_SQUARED 0.542, read-out: LUCIFERASE INFECTION ASSAY - IC50”, the IC50 was above 6.53 µM.

Turning to `Cc1nnc(SCCOc2ccc(C(C)(C)C)cc2)n1C1CCCCC1`, the IC90 is above 10 µM. Moreover, the IC50 (HEPG2TOX_HILL_SLOPE 0.16, HEPG2TOX_R_SQUARED 0.182, read-out: LUCIFERASE INFECTION ASSAY - IC50) is above 10 µM.

Turning to `CC(Sc1nc(=O)c2c3c(sc2[nH]1)CCCC3)C(=O)Nc1ccc2ccccc2c1` (stereo not given), the IC90 was above 10 µM. Moreover, the IC50 (HEPG2TOX_HILL_SLOPE 0.165, HEPG2TOX_R_SQUARED 0.248, read-out: LUCIFERASE INFECTION ASSAY - IC50) was above 10 µM.

Consider `CCn1c(O)c(C2NCCc3c2[nH]c2ccc(OC)cc32)c(=O)[nH]c1=O` (stereo not given), for which the IC90 stood at 4.71 µM. Moreover, the IC50 (HEPG2TOX_HILL_SLOPE 0.178, HEPG2TOX_R_SQUARED 0.706, PBLUC_HILL_SLOPE 1.13, PBLUC_R_SQUARED 0.918, read-out: LUCIFERASE INFECTION ASSAY - IC50) worked out at 0.675 µM.

As for `CCOC(=O)c1c(C)[nH]c(C(=O)C(C)OC(=O)c2c3c(nc4ccccc24)/C(=C/c2ccc(F)cc2)CCC3)c1C` (stereo not given), the IC90 was above 10 µM. Besides, the IC50 (HEPG2TOX_HILL_SLOPE 0.182, HEPG2TOX_R_SQUARED 0.103, read-out: LUCIFERASE INFECTION ASSAY - IC50) was above 10 µM.

Regarding `CC(C)c1cccc(Nc2nnc(C(O)c3cccc(N(C)C)c3)s2)c1` (stereo not given), the IC90 was above 10 µM. In addition, where the note is “HEPG2TOX_HILL_SLOPE 0.177, HEPG2TOX_R_SQUARED 0.124, PBLUC_HILL_SLOPE 3.19, PBLUC_R_SQUARED 0.0119, read-out: LUCIFERASE INFECTION ASSAY - IC50”, the IC50 is above 10 µM.

With `COc1ccccc1-c1ccc2ncc(-c3cccc(C(C)=O)c3)n2n1`, the IC90 stood at 8.88 µM. Besides, the IC50 (HEPG2TOX_HILL_SLOPE 0.183, HEPG2TOX_R_SQUARED 0.285, PBLUC_HILL_SLOPE 2.88, PBLUC_R_SQUARED 0.586, read-out: LUCIFERASE INFECTION ASSAY - IC50) was 4.14 µM.

On to `CC(C)[C@H](NC(=O)c1ccccc1Cl)C(=O)OC(C(=O)Nc1cccc(C(F)(F)F)c1)c1ccccc1` (stereo not given in full), for which the IC90 is above 10 µM. The IC50 (HEPG2TOX_HILL_SLOPE 0.157, HEPG2TOX_R_SQUARED 0.175, read-out: LUCIFERASE INFECTION ASSAY - IC50) was above 10 µM.

As to `Cc1ccc(-c2nnc(SCCOc3ccccc3C)nc2-c2ccc(C)cc2)cc1`, the IC90 is above 10 µM. Moreover, the IC50 (HEPG2TOX_HILL_SLOPE 0.184, HEPG2TOX_R_SQUARED 0.53, PBLUC_HILL_SLOPE 4.7, PBLUC_R_SQUARED 0.148, read-out: LUCIFERASE INFECTION ASSAY - IC50) worked out at 8.99 µM.

With `CCCC(CNC(=O)COC(=O)c1ccc2[nH]c3c(c2c1)CCCC3)c1ccc(Cl)cc1Cl` (stereo not given), the IC90 was above 10 µM. Also, the IC50 (HEPG2TOX_HILL_SLOPE 0.187, HEPG2TOX_R_SQUARED 0.0336, read-out: LUCIFERASE INFECTION ASSAY - IC50) was above 10 µM.

As to `CC(C)C(C(=O)Nc1ccc(C#N)cc1)c1ccc(Cl)cc1` (stereo not given), the 90% effect concentration (IC90) was above 10 µM. In addition, for the setting “HEPG2TOX_HILL_SLOPE 0.183, HEPG2TOX_R_SQUARED 0.415, read-out: LUCIFERASE INFECTION ASSAY - IC50”, the IC50 is above 10 µM.

Consider `N#Cc1ccc(-c2cnc3cnc(-c4ccc(CNc5ccccc5)cc4)cn23)cc1`, for which the IC90 was found to be 6.67 µM. In addition, under “HEPG2TOX_HILL_SLOPE 0.183, HEPG2TOX_R_SQUARED 0.0935, PBLUC_HILL_SLOPE 1.81, PBLUC_R_SQUARED 0.744, read-out: LUCIFERASE INFECTION ASSAY - IC50”, the IC50 worked out at 1.98 µM.

Regarding `Cc1cc(C(=O)COC(=O)c2ccccc2C(F)(F)F)c(C)n1Cc1ccccc1Cl`, the IC90 stood at 3.52 µM. Besides, the IC50 (HEPG2TOX_HILL_SLOPE 0.164, HEPG2TOX_R_SQUARED 0.816, PBLUC_HILL_SLOPE 1.63, 0.884, PBLUC_R_SQUARED 0.848, 0.800, read-out: LUCIFERASE INFECTION ASSAY - IC50) was found to be 0.696 µM.

Take `Cc1c(O)ccc2c(CNc3ccc(C(C)(C)C)cc3)cc(=O)oc12`: the IC90 is above 10 µM. In addition, the IC50 (HEPG2TOX_HILL_SLOPE 0.191, HEPG2TOX_R_SQUARED 0.186, PBLUC_HILL_SLOPE 2.86, PBLUC_R_SQUARED 0.292, read-out: LUCIFERASE INFECTION ASSAY - IC50) was determined as 4.84 µM.

As for `O=C(NC1CCCCC1C(F)(F)F)c1csc(-c2ccccc2)n1` (stereo not given), the IC90 was 3.92 µM. Besides, the IC50 (HEPG2TOX_HILL_SLOPE 0.159, HEPG2TOX_R_SQUARED 0.617, PBLUC_HILL_SLOPE 14, PBLUC_R_SQUARED 0.734, read-out: LUCIFERASE INFECTION ASSAY - IC50) came out at 3.35 µM.

In the case of `CCOc1ccc(C(=O)Nc2nc3ccccn3c2C(=O)NC(C)C)cc1`, the IC90 amounted to 8.41 µM. In addition, the IC50 (HEPG2TOX_HILL_SLOPE 0.179, HEPG2TOX_R_SQUARED 0.152, PBLUC_HILL_SLOPE 1.27, PBLUC_R_SQUARED 0.525, read-out: LUCIFERASE INFECTION ASSAY - IC50) stood at 1.5 µM.

In the case of `CCOC(=O)c1c(NC(=O)C2Cc3ccccc3CN2S(=O)(=O)c2cccs2)sc2c1CCCC2` (stereo not given), the IC90 is above 10 µM. Further, under “HEPG2TOX_HILL_SLOPE 0.167, HEPG2TOX_R_SQUARED 0.0943, PBLUC_HILL_SLOPE 2.23, PBLUC_R_SQUARED 0.122, read-out: LUCIFERASE INFECTION ASSAY - IC50”, the IC50 was determined as 6.53 µM.

In the case of `CCN(c1ccccc1)S(=O)(=O)c1ccc(Sc2ccc(C)cc2C)nc1`, the IC90 was above 10 µM. Also, the IC50 (HEPG2TOX_HILL_SLOPE 0.198, HEPG2TOX_R_SQUARED 0.716, PBLUC_HILL_SLOPE 11.9, PBLUC_R_SQUARED 0.0318, read-out: LUCIFERASE INFECTION ASSAY - IC50) amounted to 9.38 µM.

Consider `CC(=O)c1cccc(-c2cnc3ccc(-c4cccc(Oc5ccccc5)c4)nn23)c1`, for which the IC90 is above 10 µM. Further, where the note is “HEPG2TOX_HILL_SLOPE 0.164, HEPG2TOX_R_SQUARED 0.772, PBLUC_HILL_SLOPE 1.12, PBLUC_R_SQUARED 0.566, read-out: LUCIFERASE INFECTION ASSAY - IC50”, the IC50 was 1.9 µM.

Turning to `CC(C)(C)c1ccc(-c2cnc3cnc(-c4ccncc4)cn23)cc1`, the IC90 worked out at 4.79 µM. In addition, the half-maximal inhibitory concentration (IC50) (HEPG2TOX_HILL_SLOPE 0.197, HEPG2TOX_R_SQUARED 0.782, PBLUC_HILL_SLOPE 7.81, PBLUC_R_SQUARED 0.726, read-out: LUCIFERASE INFECTION ASSAY - IC50) came out at 3.62 µM.

As to `O=C(Nc1nc(-c2ccc[nH]2)cs1)c1cccc(Br)c1`, the IC90 was above 10 µM. Besides, under “HEPG2TOX_HILL_SLOPE 0.199, HEPG2TOX_R_SQUARED 0.479, read-out: LUCIFERASE INFECTION ASSAY - IC50”, the IC50 was above 10 µM.

As for `CN(C)S(=O)(=O)c1cccc(NC(=O)c2ccc(-n3cnc4ccccc43)cc2)c1`, the IC90 was 6.32 µM. Further, the IC50 (HEPG2TOX_HILL_SLOPE 0.179, HEPG2TOX_R_SQUARED 0.448, PBLUC_HILL_SLOPE 2.55, PBLUC_R_SQUARED 0.642, read-out: LUCIFERASE INFECTION ASSAY - IC50) turned out to be 2.67 µM.

As to `Fc1ccc(-c2ccc3ncc(-c4cccnc4)n3n2)cc1`, the IC90 was above 3.33 µM. The IC50 (HEPG2TOX_HILL_SLOPE 0.173, HEPG2TOX_R_SQUARED 0.325, read-out: LUCIFERASE INFECTION ASSAY - IC50) is above 3.33 µM.

Turning to `Cc1[nH]c2ccccc2c1C(=O)C(C)OC(=O)C1(c2cccc(F)c2)CCCC1` (stereo not given), the IC90 was above 10 µM. Further, where the note is “HEPG2TOX_HILL_SLOPE 0.175, HEPG2TOX_R_SQUARED 0.148, read-out: LUCIFERASE INFECTION ASSAY - IC50”, the IC50 is above 10 µM.
